Data published in ChEMBL document CHEMBL4043194, “Nrf2 activators from Glycyrrhiza inflata and their hepatoprotective activities against CCl4-induced liver injury in mice” (Bioorg Med Chem, 2017).
Active and inactive are the calls of the source. The calls are words filed in the database; no cut-off is given here.

Assays:
[1] = target: T1, Nuclear factor erythroid 2-related factor 2 (Homo sapiens) (UniProt Q16236); assay: Activation of Nrf2 (unknown origin) expressed in human HepG2 cells at 10 uM incubated for 6 hrs by ARE-driven luciferase reporter gene assay relative to untreated control; type: cell-based
T1 sequence (whole entry): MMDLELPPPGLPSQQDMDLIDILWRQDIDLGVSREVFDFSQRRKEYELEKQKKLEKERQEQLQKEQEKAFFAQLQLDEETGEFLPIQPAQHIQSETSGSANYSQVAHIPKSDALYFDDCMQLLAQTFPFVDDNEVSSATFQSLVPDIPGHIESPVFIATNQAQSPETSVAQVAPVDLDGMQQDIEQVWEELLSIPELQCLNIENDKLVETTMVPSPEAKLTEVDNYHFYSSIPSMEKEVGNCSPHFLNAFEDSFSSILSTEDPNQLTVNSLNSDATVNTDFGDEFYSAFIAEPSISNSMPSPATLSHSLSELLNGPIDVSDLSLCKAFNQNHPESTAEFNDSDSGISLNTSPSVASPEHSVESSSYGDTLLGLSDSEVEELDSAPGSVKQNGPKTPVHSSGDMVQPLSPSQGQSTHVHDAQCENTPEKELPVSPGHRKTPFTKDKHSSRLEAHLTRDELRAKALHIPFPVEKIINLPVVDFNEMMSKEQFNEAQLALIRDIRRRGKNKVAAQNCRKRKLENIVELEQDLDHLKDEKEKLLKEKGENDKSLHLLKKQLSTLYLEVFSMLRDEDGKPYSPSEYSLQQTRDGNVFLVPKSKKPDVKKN

[2] = target: T1, Nuclear factor erythroid 2-related factor 2 (Homo sapiens); assay: Activation of Nrf2 (unknown origin) expressed in human HepG2 cells at 2.5 to 20 uM incubated for 6 hrs by ARE-driven luciferase reporter gene assay; type: cell-based
HepG2 [3] = assay: Cytotoxicity in human HepG2 cells expressing Nrf2/ARE-driven luciferase at 20 to 40 uM incubated for 6 hrs; type: cell-based; conditions: hepg2, 6 h
[4] = target: T1, Nuclear factor erythroid 2-related factor 2 (Homo sapiens); assay: Activation of Nrf2 (unknown origin) expressed in human HepG2 cells assessed as cytoprotection against CCL4-induced cell injury by measuring increase in cell viability at 2.5 to 20 uM relative to untreated control; type: cell-based
Mus musculus [5] = assay: Hepatoprotective activity against CCL4-induced liver damage in ICR mouse assessed as alanine aminotransferase level at 50 mg/kg, po administered once daily for 7 consecutive days followed by CCL4 challenge 6 hrs after last dose and measured 24 hrs post CCL4 injection (reference value: 1025 U/L); type: functional
Mus musculus [6] = assay: Hepatoprotective activity against CCL4-induced liver damage in ICR mouse assessed as aspartate aminotransferase level at 50 mg/kg, po administered once daily for 7 consecutive days followed by CCL4 challenge 6 hrs after last dose and measured 24 hrs post CCL4 injection (reference value: 625 U/L); type: functional
Mus musculus [7] = assay: (§1) Hepatoprotective activity against CCL4-induced liver damage in ICR mouse assessed as LDH level at 50 mg/kg, po administered once daily for 7 consecutive days followed by CCL4 challenge 6 hrs after last dose and measured 24 hrs post CCL4 injection (reference value: 2818 U/L); type: functional
Mus musculus [8] = assay: as §1, with “reduction in liver lesions by measuring necrosis” for “LDH level”, “by hematoxylin-eosin staining based light microscopy” for “(reference value: 2818 U/L)”; type: functional, organism-based
Mus musculus [9] = assay: as §1, with “reduction in liver lesions by measuring ballooning degeneration” for “LDH level”, “by hematoxylin-eosin staining based light microscopy” for “(reference value: 2818 U/L)”; type: functional, organism-based
Mus musculus [10] = assay: as §1, with “reduction in liver lesions by measuring neutrophil infiltration” for “LDH level”, “by hematoxylin-eosin staining based light microscopy” for “(reference value: 2818 U/L)”; type: functional, organism-based
[11] = Cmax in Sprague-Dawley rat at 50 mg/kg, po administered as single dose measured after 0.08 to 24 hrs post dose by LC/MS/MS method; type: ADME, organism-based; parameters: dose 50 mg/kg, route oral; conditions: in vivo
[12] = Tmax in Sprague-Dawley rat at 50 mg/kg, po administered as single dose measured after 0.08 to 24 hrs post dose by LC/MS/MS method; type: ADME, organism-based; conditions: in vivo
[13] = Half life in Sprague-Dawley rat at 50 mg/kg, po administered as single dose measured after 0.08 to 24 hrs post dose by LC/MS/MS method; type: ADME, organism-based; conditions: in vivo
[14] = AUC (0 to t) in Sprague-Dawley rat at 50 mg/kg, po administered as single dose measured after 0.08 to 24 hrs post dose by LC/MS/MS method; type: ADME, organism-based; parameters: dose 50 mg/kg, time 0.08-24 hr, route oral; conditions: in vivo
Rattus norvegicus [15] = assay: AUC (0 to infinity) in Sprague-Dawley rat at 50 mg/kg, po administered as single dose measured after 0.08 to 24 hrs post dose by LC/MS/MS method; type: ADME, organism-based; parameters: dose 50 mg/kg, time infinity, route oral; conditions: in vivo
[16] = MRT (0 to t) in Sprague-Dawley rat at 50 mg/kg, po administered as single dose measured after 0.08 to 24 hrs post dose by LC/MS/MS method; type: ADME, organism-based; conditions: in vivo
[17] = MRT (0 to infinity) in Sprague-Dawley rat at 50 mg/kg, po administered as single dose measured after 0.08 to 24 hrs post dose by LC/MS/MS method; type: ADME, organism-based; conditions: in vivo
Rattus norvegicus [18] = assay: Apparent clearance during terminal phase in Sprague-Dawley rat at 50 mg/kg, po administered as single dose measured after 0.08 to 24 hrs post dose by LC/MS/MS method; type: ADME, organism-based; conditions: in vivo
[19] = Apparent volume of distribution during terminal phase in Sprague-Dawley rat at 50 mg/kg, po administered as single dose measured after 0.08 to 24 hrs post dose by LC/MS/MS method; type: ADME, organism-based; conditions: in vivo, read-out: Vz/F
Rattus norvegicus [20] = assay: VRT (0 to t) in Sprague-Dawley rat at 50 mg/kg, po administered as single dose measured after 0.08 to 24 hrs post dose by LC/MS/MS method; type: ADME, organism-based; conditions: in vivo
Rattus norvegicus [21] = assay: VRT (0 to infinity) in Sprague-Dawley rat at 50 mg/kg, po administered as single dose measured after 0.08 to 24 hrs post dose by LC/MS/MS method; type: ADME, organism-based; conditions: in vivo
[22] = target: T1, Nuclear factor erythroid 2-related factor 2 (Homo sapiens); assay: Activation of Nrf2 (unknown origin) expressed in human HepG2 cells at 2.5 to 10 uM incubated for 6 hrs by ARE-driven luciferase reporter gene assay; type: cell-based
HepG2 [23] = assay: Cytotoxicity in human HepG2 cells expressing Nrf2/ARE-driven luciferase at 10 to 40 uM incubated for 6 hrs; type: cell-based; conditions: hepg2, 6 h
Mus musculus [24] = assay: Hepatoprotective activity against CCL4-induced liver damage in ICR mouse assessed as alanine aminotransferase level at 100 mg/kg, po administered once daily for 7 consecutive days followed by CCL4 challenge 6 hrs after last dose and measured 24 hrs post CCL4 injection (reference value: 1025 U/L); type: functional, organism-based
Mus musculus [25] = assay: Hepatoprotective activity against CCL4-induced liver damage in ICR mouse assessed as aspartate aminotransferase level at 100 mg/kg, po administered once daily for 7 consecutive days followed by CCL4 challenge 6 hrs after last dose and measured 24 hrs post CCL4 injection (reference value: 625 U/L); type: functional, organism-based
Mus musculus [26] = assay: (§2) Hepatoprotective activity against CCL4-induced liver damage in ICR mouse assessed as LDH level at 100 mg/kg, po administered once daily for 7 consecutive days followed by CCL4 challenge 6 hrs after last dose and measured 24 hrs post CCL4 injection (reference value: 2818 U/L); type: functional, organism-based
Mus musculus [27] = assay: as §2, with “reduction in liver lesions by measuring necrosis” for “LDH level”, “by hematoxylin-eosin staining based light microscopy” for “(reference value: 2818 U/L)”; type: functional, organism-based
Mus musculus [28] = assay: as §2, with “reduction in liver lesions by measuring ballooning degeneration” for “LDH level”, “by hematoxylin-eosin staining based light microscopy” for “(reference value: 2818 U/L)”; type: functional, organism-based
Mus musculus [29] = assay: as §2, with “reduction in liver lesions by measuring neutrophil infiltration” for “LDH level”, “by hematoxylin-eosin staining based light microscopy” for “(reference value: 2818 U/L)”; type: functional, organism-based

Row | fold change (FC) [1] | Activity [2] | Cmax [11] [ng/mL] | Tmax [12] [h] | half-life [13] [h] | AUC(0-t) [14] [ng·h/mL] | AUC (Rattus norvegicus [15]) [ng·h/mL] | MRT last [16] [h] | MRT inf [17] [h] | CLz/F (Rattus norvegicus [18]) [mL/min/kg] | Vd/F [19] [L/kg] | VRT(t) (Rattus norvegicus [20]) [hr2] | Compound | Activity (HepG2 [3]) | Activity [4] [%] | Activity (Mus musculus [5]) | Activity (Mus musculus [6]) | Activity (Mus musculus [7]) | Activity (Mus musculus [8]) | Activity (Mus musculus [9]) | Activity (Mus musculus [10]) | further results
1 | 5.17 | Dose-dependent effect | – | – | – | – | – | – | – | – | – | – | COc1c(/C=C/C(=O)c2ccc(O)cc2)ccc(O)c1O | Toxic | > 60 | 70 - 100 U/L | 150 - 180 U/L | 800 - 1200 U/L | Active | Active | Active | –
2 | 4.09 | Dose-dependent effect | 228 | 0.5 | 7.32 | 686 | 1154.92 | 3.98 | 3.98 | 349.5 | 154 | 9.97 | COc1cc(O)ccc1/C=C/C(=O)c1ccc(O)cc1 [ECHINATIN] | Toxic | > 60 | 70 - 100 U/L | 150 - 180 U/L | 800 - 1200 U/L | Active | Active | Active | VRT (Rattus norvegicus [21]): 217.15 hr2
3 | 4.07 | – | 96.8 | 2.5 | 10.3 | 837 | 993.88 | 8.48 | 14.5 | 389.8 | 370 | 40.43 | C=CC(C)(C)c1cc(/C=C/C(=O)c2ccc(O)cc2)c(OC)cc1O [LICOAGROCHACONE A] | – | > 60 | 70 - 100 U/L | 150 - 180 U/L | 800 - 1200 U/L | Active | Active | Active | Activity [22]: Dose-dependent effect; Activity (HepG2 [23]): Toxic; VRT (Rattus norvegicus [21]): 256.28 hr2
4 | – | – | – | – | – | – | – | – | – | – | – | – | SILYMARIN | – | – | – | – | – | – | – | – | Activity (Mus musculus [24]): 70 to 100 U/L; Activity (Mus musculus [25]): 150 to 180 U/L; Activity (Mus musculus [26]): 800 to 1200 U/L; Activity (Mus musculus [27]): Active; Activity (Mus musculus [28]): Active; Activity (Mus musculus [29]): Active
